# Laboratory results taken from ChEMBL document CHEMBL1149035, “Verongamine, a novel bromotyrosine-derived histamine H3-antagonist from the marine sponge Verongula gigantea” (J Nat Prod, 1994).
# Activity calls are given as the source filed them. The calls are words filed in the database; no cut-off is given here.
# Experiments:
# [1] = molecular target: Histamine H3 receptor (Cavia porcellus) (UniProt Q9JI35); test: Antagonist activity at guinea pig histamine H3 receptor assessed as blockade of (R)-alpha-methyl histamine-induced inhibition of EFS-stimulated guinea pig ileum contraction at 1 ug/mL; format: functional, tissue-based
# Histamine H3 receptor = Histamine H3 receptor (Cavia porcellus, UniProt Q9JI35); test: Binding affinity to histamine H3 receptor in guinea pig brain membrane; format: cell membranes
# [2] = molecular target: Histamine H3 receptor (Cavia porcellus) (UniProt Q9JI35); test: Antagonist activity at guinea pig histamine H3 receptor assessed as blockade of clonidine-induced inhibition of EFS-stimulated guinea pig ileum contraction at 1 ug/mL; format: functional, tissue-based
# Chain of Histamine H3 receptor (Cavia porcellus) (Q9JI35 whole entry): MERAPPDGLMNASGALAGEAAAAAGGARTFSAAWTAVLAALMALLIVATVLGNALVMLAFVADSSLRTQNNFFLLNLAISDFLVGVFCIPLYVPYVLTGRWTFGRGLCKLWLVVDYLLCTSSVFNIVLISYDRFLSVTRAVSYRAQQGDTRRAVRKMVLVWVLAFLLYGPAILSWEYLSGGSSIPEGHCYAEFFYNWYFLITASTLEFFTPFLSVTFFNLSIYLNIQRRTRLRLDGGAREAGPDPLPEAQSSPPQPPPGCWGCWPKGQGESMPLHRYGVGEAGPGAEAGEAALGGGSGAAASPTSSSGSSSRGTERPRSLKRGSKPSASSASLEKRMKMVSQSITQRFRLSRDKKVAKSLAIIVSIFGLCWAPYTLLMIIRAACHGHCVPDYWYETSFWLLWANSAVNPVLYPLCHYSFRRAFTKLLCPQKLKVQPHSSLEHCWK
# Chain of Histamine H3 receptor (Q9JI35 whole entry): as above
Compound,Activity [1],IC50 (Histamine H3 receptor),Activity [2]
COC1=C(Br)C(O)C2(C=C1Br)CC(C(=O)NCCc1c[nH]cn1)=NO2 (centres undefined),inactive,–,–
COc1ccc(C/C(=N\O)C(=O)NCCc2c[nH]cn2)cc1Br [VERONGAMINE],Active,500 nM,inactive
